In one assay the target is T1, HDAC11 (Homo sapiens, UniProt Q96DB2).
T1 construct: purchased Reaction Biology Corporation; host or cells: baculovirus expression system in SF9 cells
T1 sequence (Q96DB2 1-347): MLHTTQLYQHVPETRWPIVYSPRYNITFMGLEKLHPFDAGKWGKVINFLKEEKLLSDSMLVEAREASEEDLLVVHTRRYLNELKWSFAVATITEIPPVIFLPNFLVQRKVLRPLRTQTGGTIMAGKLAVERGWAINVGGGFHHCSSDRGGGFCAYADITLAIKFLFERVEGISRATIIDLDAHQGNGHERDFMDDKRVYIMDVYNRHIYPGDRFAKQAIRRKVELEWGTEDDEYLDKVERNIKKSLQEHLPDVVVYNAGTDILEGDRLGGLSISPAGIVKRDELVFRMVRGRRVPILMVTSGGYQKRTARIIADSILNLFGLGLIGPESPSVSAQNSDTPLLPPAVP
Nature of the assay: HDAC inhibition assay (fluorogenic peptide, Reaction Biology). As to conditions: tested once, ten-dose starting at 30 µM. Format: biochemical.

The target in the next assay is T2, HDAC1 (Homo sapiens, UniProt Q13547).
T2 construct: purchased Reaction Biology Corporation; host or cells: baculovirus expression system in SF9 cells
The description is as above. It is filed as biochemical. As to conditions: tested once, ten-dose starting at 30 µM.

Each structure is given as a SMILES string.

T2 sequence (Q13547 whole entry): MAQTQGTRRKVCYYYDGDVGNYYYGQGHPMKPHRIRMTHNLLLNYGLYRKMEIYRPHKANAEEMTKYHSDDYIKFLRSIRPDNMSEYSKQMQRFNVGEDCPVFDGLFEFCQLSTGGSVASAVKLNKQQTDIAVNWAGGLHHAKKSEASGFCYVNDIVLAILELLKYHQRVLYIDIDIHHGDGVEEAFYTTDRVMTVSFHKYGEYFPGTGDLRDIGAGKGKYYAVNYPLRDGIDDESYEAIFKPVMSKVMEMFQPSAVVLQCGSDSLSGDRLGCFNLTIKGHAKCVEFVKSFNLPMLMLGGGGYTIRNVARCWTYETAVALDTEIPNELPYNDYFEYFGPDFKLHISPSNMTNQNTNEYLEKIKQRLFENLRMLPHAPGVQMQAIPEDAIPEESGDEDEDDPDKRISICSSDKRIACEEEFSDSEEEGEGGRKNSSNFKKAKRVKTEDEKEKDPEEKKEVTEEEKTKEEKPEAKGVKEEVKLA

The IC50 is the point on the concentration scale where inhibition reaches its midpoint. A lower IC50 goes with higher potency. Turning to `CC(C)NC(=O)C1CCC(n2c(=NC(=O)c3ccccc3)[nH]c3cc(C=CC(=O)NO)ccc32)CC1` [Compound 3b, (E)-N-(5-((E)-3-(Hydroxyamino)-3-oxoprop-1-en-1-yl)-1-((1S,4S)-4-(isopropylcarbamoyl)cyclohexyl)-1H-benzo[d]imidazol-2(3H)-ylidene)benzamide], the IC50 against HDAC11 was 16.6 µM; on HDAC1, 10.8 µM.

The record behind these values is PMC10930102 (Journal of Enzyme Inhibition and Medicinal Chemistry, 2024).
